# Values quoted from earlier work, collected in US20240400534A1, “CHEMICAL TOOLS FOR DRUG TARGET IDENTIFICATION AND CHARACTERIZATION” (Dana-Farber Cancer Institute, Inc., priority 2021, published 2024).
# Target: USP7 (Homo sapiens, UniProt Q93009)
# Conditions: selective covalent inhibitor of the DUB USP7
# Chain of USP7 (Q93009 whole entry): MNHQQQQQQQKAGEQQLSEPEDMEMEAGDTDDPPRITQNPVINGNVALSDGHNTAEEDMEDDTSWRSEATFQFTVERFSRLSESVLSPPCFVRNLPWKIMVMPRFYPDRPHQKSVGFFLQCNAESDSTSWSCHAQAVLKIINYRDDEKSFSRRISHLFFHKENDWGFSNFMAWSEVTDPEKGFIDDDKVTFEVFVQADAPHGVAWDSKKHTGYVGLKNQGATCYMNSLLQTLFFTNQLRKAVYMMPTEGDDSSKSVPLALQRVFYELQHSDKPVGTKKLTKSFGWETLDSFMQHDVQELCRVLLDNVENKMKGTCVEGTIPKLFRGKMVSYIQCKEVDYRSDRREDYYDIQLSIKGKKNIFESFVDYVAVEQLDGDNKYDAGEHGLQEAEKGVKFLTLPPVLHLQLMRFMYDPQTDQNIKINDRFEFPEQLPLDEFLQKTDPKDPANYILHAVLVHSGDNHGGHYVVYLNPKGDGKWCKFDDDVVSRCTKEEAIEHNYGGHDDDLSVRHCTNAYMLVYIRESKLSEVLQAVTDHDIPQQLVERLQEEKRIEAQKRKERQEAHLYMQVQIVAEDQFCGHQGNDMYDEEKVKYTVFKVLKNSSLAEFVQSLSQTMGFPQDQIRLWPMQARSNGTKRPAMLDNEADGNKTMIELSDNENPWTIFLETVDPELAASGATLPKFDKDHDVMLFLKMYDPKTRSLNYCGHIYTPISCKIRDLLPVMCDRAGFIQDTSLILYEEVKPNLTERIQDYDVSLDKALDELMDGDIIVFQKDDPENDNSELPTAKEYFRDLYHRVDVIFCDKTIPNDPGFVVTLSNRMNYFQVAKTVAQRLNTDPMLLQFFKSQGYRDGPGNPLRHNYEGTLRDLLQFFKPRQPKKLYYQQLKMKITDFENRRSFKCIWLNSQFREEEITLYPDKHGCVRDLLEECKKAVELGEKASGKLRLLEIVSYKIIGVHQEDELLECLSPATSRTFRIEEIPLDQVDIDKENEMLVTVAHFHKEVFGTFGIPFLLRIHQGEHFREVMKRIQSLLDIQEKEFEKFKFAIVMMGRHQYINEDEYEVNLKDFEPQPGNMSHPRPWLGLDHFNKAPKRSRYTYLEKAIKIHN
smiles,measurement,value
CN1CCN(CCC(=O)Nc2ccc3c(=O)n(CC4(O)CCN(C(=O)[C@@H](CCCNC(=O)c5ccc6c(Cl)c7c(nc6c5)CCCC7)Cc5ccccc5)CC4)cnc3c2)CC1 [XL177A],IC50,0.3 nM
